Reference: patent US20060173079A1, “Compositions and methods for improving the condition of patients suffering from copd and other diseases” (priority 2003, published 2006)
Entries after “also recorded” stand apart in the source; their conditions may differ.

What was measured:
[1] = Plasma urea concentration after test drinks; assay type: in vivo, human; conditions: for plasma urea compared to baseline values: healthy control and COPD group, 30.0 mg GLU/kg or 29.8 mg glutamine/kg every 20 min for 4 hours
Excerpt: The 3 test drinks were studied on different days and in a randomized order using a similar study protocol.

[2] = Plasma GLU concentration after continuous ingestion of a glutamate enriched drink; assay type: in vivo, human
Excerpt: When using a continuous infusion protocol of stable isotopes, plasma glutamate concentrations have to be in steady state condition before metabolic data can be obtained.
Subsequently, we performed several pilot studies (summary see FIG. 1) in order to obtain the optimal dose of glutamate. Pilot studies included continuous ingestion of a glutamate enriched drink and evaluation of the concentration of glutamate and related amino acids in plasma.
In the 2nd pilot study, we decided to use the pure form of glutamate to avoid the large sodium content. […] Blood samples were taken to evaluate plasma glutamate level.
This protocol was used in further studies.

[3] = Plasma lactate response to exercise; assay type: in vivo, human
Description: (§1) The subjects were measured before and during a submaximal constant work rate cycle test of 20 minutes (at 50% of their maximal workload previously achieved during an incremental exercise test).

[4] = system: whole body leucine turnover; test: Whole body leucine turnover (leucine tracer); assay type: in vivo, human
Description: FIG. 11: Whole body leucine rate of appearance gives a reflection of whole body leucine turnover and is the sum of leucine turnover coming from protein breakdown and from other (non-protein) sources.
as §1

[5] = system: whole body protein breakdown; test: Whole body protein breakdown (phenylalanine turnover, stable isotope methodology); assay type: in vivo, human; conditions: young healthy volunteers, during GLU supplementation
Description: In the young healthy volunteers, whole body protein and 3-methylhistidine turnover were measured during glutamate supplementation using stable isotope methodology. […] In order to elucidate the contribution of muscle to whole body protein metabolism, the rate of myofibrillar protein breakdown (3-methylhistidine turnover) was simultaneously measured.

[6] = Side effects / tolerance incl. Chinese restaurant syndrome (food tolerance questionnaire); assay type: in vivo, human; conditions: for side effects / adverse complaints (including Chinese Restaurant syndrome symptoms): COPD patients and healthy control subjects, 6-7 g/hour for 4-6 hours
Description: In all the pilot studies, the patients and the healthy control subjects in the age ranging from 20 to 80 years were run through a protocol to determine feasibility.
In the experiments the intake of glutamate is usually in the order of 6-7 g/hour for a period of 4-6 hours meaning a total intake of […].
Moreover, a placebo (glutamine) was used for comparison.

[7] = GLU appearance in plasma and splanchnic GLU extraction (stable isotope methodology); assay type: in vivo, human; conditions: young subjects, after start of GLU ingestion
[8] = system: myofibrillar (muscle) protein breakdown; test: Myofibrillar protein breakdown (3-methylhistidine turnover / rate of appearance); assay type: in vivo, human; conditions: for 3-methylhistidine rate of appearance in plasma during exercise: submaximal cycle exercise 20 min at 50% maximal workload, GLU versus water
[9] = cited from earlier work

NC(=O)CC[C@H](N)C(=O)O [GLN, glutamine, reference compound]
plasma urea compared to baseline values [1]: increased

N[C@@H](CCC(=O)O)C(=O)O [GLU, L-glutamic acid]
time to steady state in GLU concentration after start of ingestion ([2]; 4 subjects, 30 mg GLU/kg body weight every 20 min (FIG. 2)): ≤ 2 h | rise in plasma GLU concentration, COPD group versus control group ([2]; 8 COPD patients vs 8 healthy controls, 30 mg GLU/kg every 20 min): significantly lower | plasma GLU level compared to baseline ([2]; COPD patients and healthy age-matched control subjects (both groups), 30 mg GLU/kg every 20 min, 120 min after start): significantly increased; also recorded: significant increase | steady state in plasma glutamate level ([2]; healthy volunteers, 69.4 mg glutamate/kg body weight every 30 minutes (2.4% solution)): 30 min intervals were too long to reach a steady state | time to steady state of plasma glutamate concentration ([2]; healthy young volunteers, 30 mg GLU/kg body weight every 20 min): ≤ 120 min | increase in the plasma glutamate concentration ([2]; healthy young volunteers, 30 mg GLU/kg body weight every 20 min (2.4% solution), total 300 mg/kg): about 500% | plasma GLU concentration ([2]; healthy young volunteers, GLU added to carbohydrate (maltodextrin) whey protein meal (carbohydrate:protein:glutamate=5:2:5)): significantly increased to steady state values | increase in plasma lactate concentration during exercise versus water ([3]; COPD group (text to FIG. 13)): lower increase | increase in plasma lactate concentration during exercise versus water ([3]; healthy control group (FIG. 13 legend)): lower increase | whole body leucine turnover not related to protein turnover ([4]; at rest, COPD and control subjects): reduction | increase in whole body leucine turnover during exercise ([4]; cycle exercise 20 min at 50% maximal workload, 30 mg GLU/kg every 20 min versus water, COPD (and control) group): diminished the increase | whole body protein breakdown rate (phenylalanine turnover) [5]: gradual decrease; also recorded: significantly decreased | CRS effects versus placebo (glutamine) ([6]; 26 healthy volunteers, 30 mg GLU/kg every 20 min): No significant differences | number and severity of complaints versus placebo (glutamine) ([6]; 26 healthy volunteers, 30 mg GLU/kg every 20 min, questionnaire until 2 hours after last ingestion): No differences | subjects having the symptoms known as Chinese restaurant syndrome ([6]; 26 healthy volunteers, 30 mg GLU/kg every 20 min, until 2 hours after ingestion): less than 5% | side effects / adverse complaints (including Chinese Restaurant syndrome symptoms) [6]: none | side effects / adverse complaints (including Chinese Restaurant syndrome symptoms) ([6]; listed as glutamate): do not occur | time to steady state of whole body GLU plasma appearance [7]: ≤ 1.5 h | plasma urea compared to baseline values [1]: decreased | plasma urea concentration after intake ([1]; healthy young volunteers, GLU with carbohydrate (maltodextrin) protein meal): decreased | myofibrillar protein breakdown during the first 10 minutes of exercise ([8]; COPD group, cycle exercise, ingesting glutamate): reduction | 3-methylhistidine rate of appearance in plasma during exercise ([8]; COPD group): abolished the increase | 3-methylhistidine rate of appearance in plasma during exercise ([8]; COPD group, listed as glutamate): diminished | myofibrillar protein breakdown (3-methylhistidine turnover) ([8]; young healthy volunteers at rest, in less than one hour after GLU ingestion): reduction; also recorded: decreased

N[C@@H](CCC(=O)O)C(=O)[O-].[Na+] [MSG, monosodium glutamate]
side effects after high (bolus) dose ([9]; Graham et al., healthy subjects, bolus MSG): transient headaches | plasma GLU concentration versus dose ([9]; Stegink et al. and Ghezzi et al., healthy volunteers, various concentrations of MSG): increased proportionally to the given dose | muscle GLU concentration ([9]; young healthy men, glutamate provided in excess as MSG): increase | tolerance of the drink ([6]; healthy volunteers, 3.6% MSG solution, 80.3 mg MSG/kg body weight every 30 minutes): well
